# Measurements published in patent US20080195322A1, “Quantification of the Effects of Perturbations on Biological Samples” (The Board of Regents of the University of Texas System, priority 2007, published 2008).
# Test system: HeLa cells
# Assay: High-throughput image-based multivariate phenotypic profiling (d-profiles) of the 100-compound compendium by fluorescence microscopy
# Type: cell-based, human
# Details: for compound closest to first d-profile / compound closest to second d-profile: compounds with multiple d-profiles
# Protocol: To illustrate the performance of the present multivariate approach, the disclosed methods were applied to a compendium of fluorescence microscopy images in which HeLa cells were treated with 100 compounds, dissolved in dimethyl sulfoxide (DMSO), over 13 threefold titrations as shown in FIGS. 5A and 5B. The compounds represented approximately 20 categories of activities as shown in the table of FIG. 6, selected to cover mechanisms of toxicity, signaling pathways, and therapeutic targets in cancer and other diseases. Compound effects were assayed in duplicate on 384-well plates, using four sets of multiplexed molecular markers (DNA-SC35-anillin; DNA-p53-cFos; DNA-p38-pERK; DNA-mirotubule-actin). On average, 2413±852 (mean±standard deviation) cells were captured per well, from 103,580 images per marker set, to yield a total of ˜37 million individual identified cells. Cells treated with DMSO alone were used as controls.
# Although most of these features were derived from the measurements of individual markers, some features measured information from more than one marker (such as the spatial correlation between the intensities of two different markers).
# Due to biological and experimental variability, the significance thresholds of classification accuracy at p=0.05 estimated on every plate were much higher than 50% (FIGS. 8A-D, lower panels, dashed lines), and occasionally could reach as high as 90%. Therefore, well-to-well variability, even within the control population, could be high and should not be ignored.
# To simulate a drug screen for compounds of similar target to a known compound, a d-profile was selected to be the reference profile, while all other d-profiles from the compendium were used as blinded test profiles. Similarity scores between the reference profile and all other test profiles were computed and ranked. The test profiles that were most similar to the reference profile were selected as “drug candidates.”
# For each reference profile, the performance in identifying test profiles was estimated with similar a target on each marker set by using prior target annotations as the “gold standard.” […] was used as the performance evaluation criterion (Methods). “On-target” effects were defined as d-profiles whose AUC values were significant (p<0.05), and all other d-profiles were defined as “off-target.” 73%, 40%, 67%, and 56% of the compounds with more than one d-profile and at least one on-target d-profile had at least one off-target d-profile on the DNA-SC35-anillin, DNA-p53-cFos, DNA-p38-pERK and DNA-MT-actin marker sets respectively. […] Thus, the present method can identify dose-dependent secondary or tertiary responses that were very different from the primary responses.
# The compound category of a novel d-profile may be inferred by comparison to a collection of previously categorized reference d-profiles. […] Although all of these compounds are histone deacetylase inhibitors, oxamflatin, trichostatin, and scriptaid are hydroxamic acids having very different chemical structures than apicidin, a cyclic tetrapeptide. […] For a d-profile, an accurate prediction was made when its most similar d-profile was annotated to the same target category.
# [1] = drug screening simulation against prior target annotations
molecule,measurement,setting,value
Oxamflatin,most similar d-profiles (category prediction),DNA-p38-pERK marker set,"most similar to trichostatin, scriptaid, and apicidin"
"CC(=O)O[C@H]1C(=O)[C@@]2(C)[C@H]([C@H](OC(=O)c3ccccc3)[C@]3(O)C[C@H](OC(=O)[C@H](O)[C@@H](NC(=O)c4ccccc4)c4ccccc4)C(C)=C1C3(C)C)[C@]1(OC(C)=O)CO[C@@H]1C[C@@H]2O [taxol, Taxol]",number of d-profiles,"across all four marker sets, 13 threefold titrations",2
same,compound closest to first d-profile,category prediction,closest to sulindac sulfide
same,compound closest to second d-profile,category prediction,closest to epothilone B and griseofulvin
COc1cccc2c1C(=O)c1c(O)c3c(c(O)c1C2=O)C[C@@](O)(C(=O)CO)C[C@@H]3O[C@H]1C[C@H](N)[C@H](O)[C@H](C)O1 [doxorubixin],number of features needed to detect compound effects after recursive feature removal,in each of the four marker sets,only a single feature
CC[C@@]1(O)C(=O)OCc2c1cc1n(c2=O)Cc2cc3ccccc3nc2-1 [Camptothecin],compound closest to first d-profile,category prediction,"closest to another topoisomerase inhibitor, etoposide"
same,compound closest to second d-profile,category prediction,"closest to a CDK inhibitor, alsterpullone"
same,off-target effects (d-profiles whose AUC not significant),[1],one off-target effect
same,"on-target effects (d-profiles whose AUC values were significant, p<0.05)",[1],one on-target effect
"COC(=O)Nc1nc2ccc(C(=O)c3cccs3)cc2[nH]1 [nocadazale, Nocodazole]","d-profile similarity to the group of microtubule stabilizing compounds (taxol second d-profile, epothilone B, griseofulvin)",category prediction,further away
"NC(=O)NO [hydroxy urea-2, hydroxy urea]",most similar d-profiles (category prediction),DNA-p53-cFos marker set,most similar to aphidicolin and methotrexate
